Assay results published in patent US11076595B2, “1-(n,n-disubstituted carbamoyl) 4-(substituted sulfonyl)triazolin-5-one derivative, 4-(n,n-disubstituted carbamoyl) 1-(substituted sulfonyl)triazolin-5-one derivative, and herbicide containing said derivative as active ingredient” (HOKKO CHEMICAL INDUSTRY CO., LTD., priority 2017, dated 2021).

Key:
Assay type in all cases: in vivo
Echinochloa crus-galli [1] = experiment: Test Example 11: herbicidal effect test by soil treatment in paddy field; conditions: 120 g/10a active ingredient, 14 days after treatment
How it was run: (§1)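 Pre-emergence paddy test, 120 g a.i./10 are, emulsifiable concentrate diluted in water and added dropwise to ~3 cm flood water right after sowing (30 seeds/species, 0–1 cm depth, fertilized puddled soil). Greenhouse; 2 replicates; dry-weight suppression (%) vs untreated, day 14.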

Lindernia pyxidaria [2] = experiment: as above; conditions: 120 g/10a active ingredient, 14 days after treatment
How it was run: as §1

Monochoria vaginalis [3] = experiment: as above; conditions: 120 g/10a active ingredient, 14 days after treatment
How it was run: as §1

Scirpus juncoides [4] = experiment: as above; conditions: 120 g/10a active ingredient, 14 days after treatment
How it was run: as §1

Echinochloa crus-galli [5] = experiment: Test Example 12: herbicidal effect test by treatment during growing period in paddy field; conditions: 120 g/10a; treatment seven days after sowing in flooded paddy pot; assessed 14 days after treatment
How it was run: (§2)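 Paddy soil + NPK 17:17:17, puddled; 30 seeds/species sown 0–1 cm; flooded ~3 cm, greenhouse. Day 7 post-sowing: EC diluted in water, applied dropwise into water, 120 g a.i./10 are. Day 14 post-treatment: dry weight vs untreated → % suppression; n=2.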

Lindernia pyxidaria [6] = experiment: as above; conditions: 120 g/10a; treatment seven days after sowing in flooded paddy pot; assessed 14 days after treatment
How it was run: as §2

Monochoria vaginalis [7] = experiment: as above; conditions: 120 g/10a; treatment seven days after sowing in flooded paddy pot; assessed 14 days after treatment
How it was run: as §2

Scirpus juncoides [8] = experiment: as above; conditions: 120 g/10a; treatment seven days after sowing in flooded paddy pot; assessed 14 days after treatment
How it was run: as §2

Chenopodium album = experiment: Test Example 14: herbicidal effect test by foliage treatment in upland field; conditions: 7 days after sowing, 120 g/10a, 14 days after treatment
Method: (§3) A pot having a size of 36 cm^2 was filled with field soil (alluvial soil) and after uniformly mixing the soil of the surface layer of 1 cm with 20 grains of each weed seed of crabgrass, Echinochloa crus-galli, Chenopodium album and Amaranthus viridis, the surface layer was pressed lightly. Seven Days after the sowing, an emulsifiable concentrate prepared according to Formulation Example 15 by using the compound shown in Table 12 below was diluted with water, and the water-diluted formulation was sprayed on the soil surface at a ratio of 100 liter per 10 are. The application rate of the active ingredient, by conversion, corresponded to 120 g per 10 are. Fourteen Days after the formulation treatment, the herbicidal effect was evaluated by the same criteria as in Test Example 11.

crabgrass = experiment: as above; conditions: 7 days after sowing, 120 g/10a, 14 days after treatment
Method: as §3

Amaranthus viridis = experiment: as above; conditions: 7 days after sowing, 120 g/10a, 14 days after treatment
Method: (§4) This test was performed with two replications per one formulation concentration plot, and 14 days after the formulation treatments, the weed suppression rate (%) was determined according to the following equation (Math. 2). Weed suppression rate (%)=(1−average dry weight (g) of plants in treated plots/average dry weight (g) of plants in untreated plots)×100 [Math. 2]
as §3

Echinochloa crus-galli [9] = experiment: as above; conditions: 7 days after sowing, 120 g/10a, 14 days after treatment
Method: as §4, §3

Structure (SMILES) | Weed suppression rate (%) Echinochloa crus-galli (Echinochloa crus-galli [1]) | Weed suppression rate (%) Lindemia pyxidaria (Lindernia pyxidaria [2]) | Weed suppression rate (%) Monochoria vaginalis (Monochoria vaginalis [3]) | Weed suppression rate (%) Scirpus juncoides (Scirpus juncoides [4]) | Weed suppression rate (%) Echinochloa crus-galli (Echinochloa crus-galli [5]) | Weed suppression rate (%) Lindemia pyxidaria (Lindernia pyxidaria [6]) | Weed suppression rate (%) Monochoria vaginalis (Monochoria vaginalis [7]) | Weed suppression rate (%) Scirpus juncoides (Scirpus juncoides [8]) | herbicidal effect, Chenopodium album (Chenopodium album) | herbicidal effect, Crabgrass (crabgrass) | herbicidal effect, Amaranthus viridis (Amaranthus viridis) | herbicidal effect, Echinochloa crus-galli (Echinochloa crus-galli [9])
CN(C(=O)n1cnn(S(=O)(=O)C2CCCCC2)c1=O)c1ccc(F)cc1F [Compound 11-1129] | 100% | 100% | 100% | 100% | 100% | 70% | 80% | 100% | 60% | 90% | 70% | 70%
O=C(N(CC(F)(F)F)c1ccc(F)cc1F)n1cnn(S(=O)(=O)C2CC2)c1=O [Compound 11-144] | 100% | 90% | 80% | 100% | 100% | 100% | 100% | 100% | 60% | 80% | 80% | 80%
CC(C)N(C(=O)n1cnn(S(=O)(=O)C2CCCCC2)c1=O)c1cccc(F)c1F [Compound 11-293] | 100% | 100% | 100% | 100% | 100% | 100% | 100% | 100% | 70% | 100% | 60% | 90%
CC(C)N(C(=O)n1cnn(S(=O)(=O)c2cccc(C(F)(F)F)c2)c1=O)c1ccc(Cl)cc1Br [Compound 11-735] | 100% | 90% | 90% | 100% | 100% | 90% | 90% | 100% | 70% | 100% | 70% | 60%
C=CS(=O)(=O)n1ncn(C(=O)N(c2ccc(F)cc2F)C(C)C)c1=O [Compound 11-134] | 70% | 40% | 40% | 40% | 70% | 40% | 40% | 40% | 40% | 70% | 40% | 40%
CC(C)N(C(=O)n1cnn(S(=O)(=O)c2ccc(C(C)(C)C)cc2)c1=O)c1c(F)cc(F)cc1F [Compound 11-686] | 90% | 100% | 80% | 100% | 90% | 60% | 70% | 100% | 60% | 90% | 30% | 90%
CC(C)N(C(=O)n1cnn(S(=O)(=O)c2ccc(F)cc2)c1=O)c1ccccc1 [Compound 11-464] | 100% | 80% | 60% | 80% | 90% | 60% | 80% | 90% | 50% | 90% | 50% | 60%
CC(C)N(C(=O)n1cnn(S(=O)(=O)c2c(F)c(F)c(F)c(F)c2F)c1=O)c1c(F)cc(F)cc1F [Compound 11-815] | 100% | 100% | 80% | 100% | 100% | 80% | 70% | 70% | 80% | 100% | 70% | 70%
CC(C)N(C(=O)n1cnn(S(=O)(=O)c2cccs2)c1=O)c1ccc(F)c(F)c1F [Compound 11-1025] | 100% | 100% | 100% | 100% | 100% | 80% | 100% | 100% | 60% | 100% | 60% | 100%
CC(C)N(C(=O)n1cnn(S(=O)(=O)C2CC2)c1=O)c1ccc(Cl)cc1F [Compound 11-206] | 100% | 100% | 100% | 100% | 100% | 90% | 90% | 90% | 60% | 90% | 60% | 90%
CC(C)N(C(=O)n1cnn(S(=O)(=O)c2ccccc2F)c1=O)c1ccc(F)c(F)c1F [Compound 11-405] | 100% | 100% | 100% | 100% | 100% | 100% | 100% | 100% | 60% | 90% | 70% | 90%
CC(C)N(C(=O)n1cnn(S(C)(=O)=O)c1=O)c1c(F)c(F)cc(F)c1F [Compound 11-17] | 100% | 90% | 80% | 100% | 100% | 70% | 100% | 100% | 30% | 60% | 100% | 70%
CC(C)N(C(=O)n1cnn(S(=O)(=O)C2CCCCC2)c1=O)c1ccc(Cl)cc1Br [Compound 11-306] | 100% | 80% | 60% | 100% | 90% | 70% | 70% | 100% | 70% | 100% | 70% | 60%
